Consider 23 compounds from article PMC6269873, “Substituted 3-Benzylcoumarins as Allosteric MEK1 Inhibitors: Design, Synthesis and Biological Evaluation as Antiviral Agents” (Molecules, 2013).

Where two headings read alike, the source gives them in different places.

The target of one data set is phosphorylated MEK1 (Homo sapiens, UniProt Q02750). Description: MEK1 binding assay (HTRF, tracer displacement). To be noted: for inhibition at 2 µM: read-out: % binding (2 µM); for inhibition at 20 µM: read-out: % binding (20 µM). The procedure: The homogeneous time resolved fluorescence (HTRF) assay was performed on a Proxiplate-384 F plus solid back plate (Perkin Elmer, Waltham, MA. USA) with 5 nM GST tagged phosphorylated MEK1 (GST-MEK1), 2 nM europium-labeled anti-GST antibody (Eu-anti-GST), 20 nM kinase tracer 236 and test compound at a variety of concentrations. In the reaction mixture, GST-MEK1 forms a complex with the Eu-anti-GST and the tracer. Excitation of europium (the donor) using a 340-nm excitation filter results in energy transfer to the fluorophore of the tracer. This energy transfer is detected by an increase in the fluorescence emission of the tracer at 665 nm and a decrease in the fluorescence emission of europium at 615 nm. The FRET ratio was calculated by dividing the emission signal at 665 nm by the emission signal at 615 nm. A competitor compound such as a MEK inhibitor replaces the tracer from the complex and decreases the FRET ratio accordingly. The plate was incubated in dark at room temperature for 30 min before measuring the fluorescent emission of each well at 665 and 615 nm using a 340-nm excitation filter, 100-µs delay time, and 200-µs integration time, on a PHERAStar plate reader (BMG Labtech, Durham, NC, USA). […] Data shown as %Inhibition normalized to AZD6244 at 100 µM.
phosphorylated MEK1, sequence (Q02750 whole entry): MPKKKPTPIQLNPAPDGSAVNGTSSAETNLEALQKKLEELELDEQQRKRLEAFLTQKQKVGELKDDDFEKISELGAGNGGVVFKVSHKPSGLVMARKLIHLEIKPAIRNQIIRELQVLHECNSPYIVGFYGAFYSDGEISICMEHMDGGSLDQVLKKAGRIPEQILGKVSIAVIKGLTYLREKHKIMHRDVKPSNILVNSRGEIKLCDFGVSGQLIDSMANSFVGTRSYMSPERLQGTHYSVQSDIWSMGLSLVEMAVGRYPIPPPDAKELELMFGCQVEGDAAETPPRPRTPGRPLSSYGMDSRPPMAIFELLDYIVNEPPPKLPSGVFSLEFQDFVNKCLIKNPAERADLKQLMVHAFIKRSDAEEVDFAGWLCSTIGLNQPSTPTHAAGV

The next data set relates to ERK pathway. Description: cells. The class given is cell-based, Human. To be noted: for IC50: Homo sapiens, HEK293. The procedure:
The effects of the inhibitors on the activation of ERK pathway were determined in TPA (12-O-tetradecanoylphorbol-13-acetate)-stimulated cells using the AP-1 luciferase reporter gene assay system. Activating protein-1 (AP-1) is the nuclear transcription factor which is a heterodimeric protein downstream of MAPK composed of dimers of the Fos and Jun proteins. The stable AP-1 dimers bind to DNA recognition elements (AP-1 response elements) and mediate transcriptional induction. AP-1 controls a number of cellular events including differentiation, proliferation and apoptosis. Simultaneously, the expression of AP-1 can be regulated in response to different extracellular stimuli, such as cytokines, growth factors, stress, and bacterial and viral infections. ERK pathway is the most important mediator which is closely related to these responses. Activation of ERK pathway causes induction of fos gene, and then the product heterodimerizes with the Jun protein to form the AP-1 dimers. These newly formed heterodimers can enhance the expression of c-jun through AP-1 binding sites in the c-jun promoter. TPA can increase levels of AP-1 proteins through activation of the ERK pathway.
3.4.2. AP-1 Luciferase Reporter Gene Assay
pAP1-Luc was constructed with pGL3-basic (Promega, Madison, WI. USA) and a fragment including the AP-1 response element (2× TRE) and T7 promoter. HEK 293 cells in 96-well plates were cultured at 5% CO2 at 37 °C in DMEM containing 10% FBS. When the confluence was up to 80%, cells were transinfected with pAP1-Luc using lipofectamine 2000 (Life Technologies, Carlsbad, CA. USA). At 24 h post transinfection, individual compounds with different concentrations (5, 10, 20, 30 μM) were added into cells using three wells for each concentration used. After incubation for 1 h, TPA (50 nM) was added. The cells were harvested after 4 h and luciferase activity was measured by using luciferase assay kit (Promega) with a luminometer.

Where [1] appears, read: HTRF binding to GST tagged phosphorylated MEK1, read-out: IC50.

In the case of `Cc1c(Cc2ccccc2)c(=O)oc2cc(OC(=O)N(C)C)c(Cl)cc12` [Compound 14, 3-Benzyl-6-chloro-4-methyl-2-oxo-2H-chromen-7-yl dimethylcarbamate], the melting point lay in the range of 156 to 157 °C. At phosphorylated MEK1, the IC50 was found to be 0.307 µM, the inhibition at 2 µM worked out at 66.3% and the inhibition at 20 µM was 80.8%. This compound also returned a concentration for half-maximal inhibition (IC50) in the data set on ERK pathway of 30.8 ± 1.4 µM.
The compound `CC(=O)Oc1ccc2c(C)c(Cc3ccccc3)c(=O)oc2c1` [Compound 28, 3-Benzyl-4-methyl-2-oxo-2H-chromen-7-yl acetate] registered a melting point of 165 to 166 °C. The half-maximal inhibitory concentration (IC50) at phosphorylated MEK1 (setting [1]) turned out to be 0.52 µM. At phosphorylated MEK1, the inhibition at 2 µM is 72.2% and the inhibition at 20 µM was 96.5%. The compound further came in with a half-inhibitory concentration (IC50) with ERK pathway of 37.6 ± 1.1 µM.
In the same order, the values of `CCc1c(Cc2ccccc2)c(=O)oc2cc(OC(C)=O)ccc12` [Compound 29, 3-Benzyl-4-ethyl-2-oxo-2H-chromen-7-yl acetate] are 123 to 125 °C, 0.176 µM, 88.7%, 102% and 90.5 ± 1.83 µM.
As to `CC(=O)Oc1ccc2c(C)c(Cc3ccc(F)cc3)c(=O)oc2c1` [Compound 31, 3-(4-Fluorobenzyl)-4-methyl-2-oxo-2H-chromen-7-yl acetate], the IC50 on phosphorylated MEK1 (setting [1]) was found to be 0.248 µM. Further, on phosphorylated MEK1, the inhibition at 2 µM came out at 72.2% and the inhibition at 20 µM is 78.2%. In the data set with ERK pathway, the “inhibition of ERK pathway activation (in words)” value is “more efficiently than U0126” and half-maximal inhibition (IC50) required 15.7 ± 1.18 µM.
`CCC(=O)Oc1ccc2c(CC)c(Cc3ccccc3)c(=O)oc2c1` [Compound 36, 3-Benzyl-4-ethyl-2-oxo-2H-chromen-7-yl propionate] returned a melting point of 124 °C. The half-inhibitory concentration (IC50) at phosphorylated MEK1 (setting [1]) was determined as 0.391 µM. At phosphorylated MEK1, the inhibition at 2 µM came to 81% and the inhibition at 20 µM came to 87%. The compound further yielded an IC50 in the data set on ERK pathway of 49.8 ± 1.24 µM.
In the same order, the values of `CCC(=O)Oc1ccc2c(C)c(Cc3ccc(F)cc3)c(=O)oc2c1` [Compound 38, 3-(4-Fluorobenzyl)-4-methyl-2-oxo-2H-chromen-7-yl propionate] are 115 to 116 °C, 0.19 µM, 75.7%, 90.8% and 38.1 ± 1.26 µM.
The like results for `CCCc1c(Cc2ccc(F)cc2)c(=O)oc2cc(OC(=O)CC)ccc12` [Compound 40, 3-(4-Fluorobenzyl)-2-oxo-4-propyl-2H-chromen-7-yl propionate] were, in that order, 94 to 95 °C, 0.176 µM, 72.2%, 78.5% and 87.5 ± 1.98 µM.
In the same order, the values of `CCCC(=O)Oc1ccc2c(C)c(Cc3ccccc3)c(=O)oc2c1` [Compound 42, 3-Benzyl-4-methyl-2-oxo-2H-chromen-7-yl butyrate] are 139 to 140 °C, 0.353 µM, 53.8%, 68.4% and 88.7 ± 2.52 µM.
`CCCC(=O)Oc1ccc2c(CC)c(Cc3ccccc3)c(=O)oc2c1` [Compound 43, 3-Benzyl-4-ethyl-2-oxo-2H-chromen-7-yl butyrateen-7-yl propionate] had a melting point of 102 °C. Moreover, the IC50 on phosphorylated MEK1 (setting [1]) turned out to be 0.473 µM. Further, on phosphorylated MEK1, the inhibition at 2 µM worked out at 45% and the inhibition at 20 µM is 54.7%. This compound also came in with an IC50 with ERK pathway of 85.9 ± 1.46 µM.
Compound `Cc1c(Cc2ccccc2)c(=O)oc2cc(OC(=O)c3ccccc3)ccc12` [Compound 62, 3-Benzyl-4-methyl-2-oxo-2H-chromen-7-yl benzoate] came in with a melting point of 149 to 150 °C. Also, at phosphorylated MEK1, the inhibition at 2 µM was 4.07% and the inhibition at 20 µM was 31.1%.
Compound `Cc1c(Cc2ccccc2)c(=O)oc2cc(OC(=O)c3ccccc3)c(Cl)cc12` [Compound 63, 3-Benzyl-6-chloro-4-methyl-2-oxo-2H-chromen-7-yl benzoate] returned a melting point of 133 to 135 °C. For the same compound, on phosphorylated MEK1, the inhibition at 2 µM was 33.3% and the inhibition at 20 µM came out at 28%.
The like results for `CCc1c(Cc2ccccc2)c(=O)oc2cc(OC(=O)c3ccccc3)ccc12` [Compound 64, 3-Benzyl-4-ethyl-2-oxo-2H-chromen-7-yl benzoate] were, in that order, 138 °C, 10.1% and 21.5%.
`CCCc1c(Cc2ccccc2)c(=O)oc2cc(OC(=O)c3ccccc3)ccc12` [Compound 65, 3-Benzyl-2-oxo-4-propyl-2H-chromen-7-yl benzoate]: the melting point was found to be 120 °C. Moreover, on phosphorylated MEK1, the inhibition at 2 µM is 32.6% and the inhibition at 20 µM amounted to 37.1%.
The like results for `Cc1c(Cc2ccc(F)cc2)c(=O)oc2cc(OC(=O)c3ccccc3)ccc12` [Compound 66, 3-(4-Fluorobenzyl)-4-methyl-2-oxo-2H-chromen-7-yl benzoate] were, in that order, 151 to 153 °C, 25.8% and 31%.
Turning to `CCCc1c(Cc2ccc(F)cc2)c(=O)oc2cc(OC(=O)c3ccccc3)ccc12` [Compound 68, 3-(4-Fluorobenzyl)-2-oxo-4-propyl-2H-chromen-7-yl benzoate], the melting point lay in the range of 95 to 96 °C. Moreover, on phosphorylated MEK1, the inhibition at 2 µM is 26.1% and the inhibition at 20 µM was 45.6%.
In the same order, the values of `Cc1ccc(S(=O)(=O)Oc2ccc3c(C)c(Cc4ccccc4)c(=O)oc3c2)cc1` [Compound 76, 3-Benzyl-4-methyl-2-oxo-2H-chromen-7-yl 4-methylbenzenesulfonate] are 138 to 139 °C, 2.87% and -2.36%.
In the case of `Cc1ccc(S(=O)(=O)Oc2cc3oc(=O)c(Cc4ccccc4)c(C)c3cc2Cl)cc1` [Compound 77, 3-Benzyl-6-chloro-4-methyl-2-oxo-2H-chromen-7-yl 4-methylbenzenesulfonate], the melting point lay within 173 to 174 °C. On phosphorylated MEK1, the inhibition at 2 µM came out at 31.7% and the inhibition at 20 µM was found to be 29.6%.
In the same order, the values of `Cc1ccc(S(=O)(=O)Oc2ccc3c(C)c(Cc4ccc(F)cc4)c(=O)oc3c2)cc1` [Compound 81, 3-(4-Fluorobenzyl)-4-methyl-2-oxo-2H-chromen-7-yl 4-methylbenzenesulfonate] are 95 to 96 °C, 8.05% and 9.55%.
`COc1ccc2cc(Cc3ccccc3)c(=O)oc2c1` [Compound 83, 3-Benzyl-7-methoxy-2H-chromen-2-one] gave a melting point of 102 to 103 °C. In addition, on phosphorylated MEK1, the inhibition at 2 µM is 23% and the inhibition at 20 µM worked out at 2.93%.
The like results for `COc1ccc2cc(Cc3ccc(F)cc3)c(=O)oc2c1` [Compound 84, 3-(4-Fluorobenzyl)-7-methoxy-2H-chromen-2-one] were, in that order, 94 to 95 °C, 17.6% and 15.4%.
Regarding `COc1ccc2cc(C(=O)c3ccccc3)c(=O)oc2c1` [Compound 86, 3-benzoyl-7-methoxycoumarin], the melting point was in the range of 149 to 150 °C. Also, at phosphorylated MEK1, the inhibition at 2 µM came out at 7.96% and the inhibition at 20 µM was -8.83%.
In the same order, the values of `COc1ccc2c(C#N)c(C(=O)c3ccccc3)c(=O)oc2c1` [Compound 88, 3-Benzoyl-4-cyano-7-methoxycoumarin] are 175 to 176 °C, 32.4% and 22.9%.
`COc1ccc2c(C(=O)O)c(C(=O)c3ccccc3)c(=O)oc2c1` [Compound 89, 3-Benzoyl-4-carboxy-7-methoxycoumarin] returned a melting point of 196 to 197 °C. For the same compound, at phosphorylated MEK1, the inhibition at 2 µM was 16.5% and the inhibition at 20 µM turned out to be 6.34%.
